Measurements: US9181258B2, “Substituted 3,4-dihydropyrrolo[1,2-a]pyrazin-1(2H)-ones as protein kinase inhibitors” (NERVIANO MEDICAL SCIENCES S.R.L., priority 2011, dated 2015)
Where a name gives a salt, the structure may show the parent alone. Read-outs that look alike come from different tables or passages of the source.

Assays:
MV-4-11 cells = assay: In vitro cell proliferation assay (CellTiter-Glo), MV-4-11; format: cell-based
Description: In Vitro Cell Proliferation Assay
MV-4-11 (biphenotypic B myelomonocytic leukemia) cell line was obtained from ATCC.
Media for MV-4-11 cell line contained RPMI 1640 or EMEM plus 2 mM Glutamine and 10% Fetal bovine serum.
BaF3-PIM1 and MV-4-11 cells were seeded at 125 cells/well and 1250 cells/well respectively in a 384-well white plates in complete medium and treated with compounds dissolved in 0.1% DMSO, 24 h after seeding.
The cells were incubated at 37° C. and 5% CO2 and after 72 hours the plates were processed using CellTiter-Glo assay (Promega) following the manufacturer's instruction.
CellTiter-Glo was a homogenous method based on the quantification of the ATP present, an indicator of metabolitically active cells. ATP was quantified using a system based on luciferase and D-luciferin resulting into light generation. The luminescent signal was proportional to the number of cells present in culture.
Briefly 25 μl/well reagent solution were added to each wells and after 5 minutes shacking microplates were red by Envision (PerkinElmer) luminometer. The luminescent signal was proportional to the number of cells present in culture.
Inhibitory activity was evaluated comparing treated versus control data using Assay Explorer (MDL) program. IC50 was calculated using sigmoidal interpolation curve.

BaF3-PIM1 cells = assay: In vitro cell proliferation assay (CellTiter-Glo), BaF3-PIM1; format: cell-based; conditions: 72 hours
human PIM1 = human PIM1 (Homo sapiens (Human), UniProt P11309); assay: Biochemical assay for inhibitors of PIM1 kinase activity (trans-phosphorylation, Dowex technique); conditions: ATP 200 μM, Aktide 25 μM, enzyme 1 nM; read-out: PIM-1 IC50
Outline: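 Full-length human PIM1 (1 nM) phosphorylates Aktide (25 μM) with 200 μM ATP plus 6 nM ^33P-γ-ATP in HEPES 50 mM pH 7.5, 10 mM MgCl2, 1 mM DTT, 3 μM NaVO3, 0.2 mg/mL BSA. Unreacted ATP captured on Dowex resin, supernatant β-counted; IC50 from ten-point 1:3 dilution sigmoidal fit.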

human PIM2 = human PIM2 (Homo sapiens (Human), UniProt Q9P1W9); assay: PIM2 kinase inhibition assay: Dowex technique; format: biochemical; conditions: ATP 4 μM, Aktide 5 μM, enzyme 1.5 nM; read-out: PIM-2 IC50
Outline: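 Radiometric Dowex read-out, run as for PIM1, with 50 mM HEPES pH 7.5, 1 mM MgCl2, 1 mM DTT, 3 μM Na3VO4 and 0.2 mg/mL BSA. Final conditions: 5 μM Aktide substrate, 4 μM ATP spiked with 1 nM 33P-γ-ATP, 1.5 nM full-length human enzyme.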

human PIM1, sequence (P11309 whole entry): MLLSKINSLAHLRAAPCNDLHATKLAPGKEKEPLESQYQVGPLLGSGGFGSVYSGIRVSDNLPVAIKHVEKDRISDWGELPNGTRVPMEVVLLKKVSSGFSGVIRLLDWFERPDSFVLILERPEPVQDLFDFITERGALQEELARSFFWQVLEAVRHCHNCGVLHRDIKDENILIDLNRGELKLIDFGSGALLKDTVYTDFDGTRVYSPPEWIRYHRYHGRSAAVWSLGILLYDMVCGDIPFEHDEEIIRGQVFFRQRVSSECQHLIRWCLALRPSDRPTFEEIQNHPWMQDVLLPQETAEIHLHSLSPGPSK
human PIM2, sequence (Q9P1W9 whole entry): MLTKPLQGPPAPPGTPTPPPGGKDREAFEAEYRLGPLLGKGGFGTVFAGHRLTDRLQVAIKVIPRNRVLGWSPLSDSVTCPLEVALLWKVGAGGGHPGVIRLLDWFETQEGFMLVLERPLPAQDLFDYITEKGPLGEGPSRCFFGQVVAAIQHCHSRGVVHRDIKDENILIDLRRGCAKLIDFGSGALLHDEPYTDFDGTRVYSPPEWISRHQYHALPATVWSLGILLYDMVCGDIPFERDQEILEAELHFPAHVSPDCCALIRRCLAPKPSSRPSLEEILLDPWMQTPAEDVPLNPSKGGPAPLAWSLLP

| Compound | IC50 (MV-4-11 cells; Homo sapiens, MV4-11, 72 hours) | IC50 (BaF3-PIM1 cells) | IC50 (human PIM1) | IC50 (human PIM2) | IC50 (MV-4-11 cells; 72 hours, read-out: MV4-11 IC50) |
| --- | --- | --- | --- | --- | --- |
| NCC[C@H]1CNC(=O)c2cc(-c3cccc(OC(F)(F)F)c3)c(-c3ccc4ccccc4c3)n21 [Compound 118, (4S)-4-(2-aminoethyl)-6-(naphthalen-2-yl)-7-[3-(trifluoromethoxy)phenyl]-3,4-dihydropyrrolo[1,2-a]pyrazin-1(2H)-one hydrochloride] | 760 nM | 310 nM | 27 nM | 152 nM | – |
| NCC[C@H]1CNC(=O)c2cc(-c3cccc(OC(F)(F)F)c3)c(-c3ccc(S(N)(=O)=O)cc3)n21 [Compound 120, 4-{(4S)-4-(2-aminoethyl)-1-oxo-7-[3-(trifluoromethoxy)phenyl]-1,2,3,4-tetrahydropyrrolo[1,2-a]pyrazin-6-yl}benzenesulfonamide hydrochloride] | 5350 nM | 1360 nM | 1 nM | 3 nM | – |
| NCC[C@H]1CNC(=O)c2cc(-c3cccc(OC(F)(F)F)c3)c(-c3cccc(F)c3)n21 [Compound 121, (4S)-4-(2-aminoethyl)-6-(3-fluorophenyl)-7-[3-(trifluoromethoxy)phenyl]-3,4-dihydropyrrolo[1,2-a]pyrazin-1(2H)-one hydrochloride] | 660 nM | 86 nM | 3 nM | 12 nM | – |
| Cc1cc(-c2c(-c3cccc(OC(F)(F)F)c3)cc3n2[C@@H](CCN)CNC3=O)ccc1F [Compound 122, (4S)-4-(2-aminoethyl)-6-(4-fluoro-3-methylphenyl)-7-[3-(trifluoromethoxy)phenyl]-3,4-dihydropyrrolo[1,2-a]pyrazin-1(2H)-one hydrochloride] | 776 nM | 165 nM | 17 nM | 86 nM | – |
| CSc1ccc(-c2c(-c3cccc(OC(F)(F)F)c3)cc3n2[C@@H](CCN)CNC3=O)cc1 [Compound 123, (4S)-4-(2-aminoethyl)-6-[4-(methylsulfanyl)phenyl]-7-[3-(trifluoromethoxy)phenyl]-3,4-dihydropyrrolo[1,2-a]pyrazin-1(2H)-one hydrochloride] | 730 nM | 89 nM | 16 nM | 45 nM | – |
| CC(C)(C)c1ccc(-c2c(-c3cccc(OC(F)(F)F)c3)cc3n2[C@@H](CCN)CNC3=O)cc1 [Compound 124, (4S)-4-(2-aminoethyl)-6-(4-tert-butylphenyl)-7-[3-(trifluoromethoxy)phenyl]-3,4-dihydropyrrolo[1,2-a]pyrazin-1(2H)-one hydrochloride] | 468 nM | 130 nM | 24 nM | 160 nM | – |
| NCC[C@H]1CNC(=O)c2cc(-c3cccc(OC(F)(F)F)c3)c(-c3cccc(C(F)(F)F)c3)n21 [Compound 125, (4S)-4-(2-aminoethyl)-7-[3-(trifluoromethoxy)phenyl]-6-[3-(trifluoromethyl)phenyl]-3,4-dihydropyrrolo[1,2-a]pyrazin-1(2H)-one hydrochloride] | 940 nM | 304 nM | 44 nM | 97 nM | – |
| NCC[C@H]1CNC(=O)c2cc(-c3cccc(OC(F)(F)F)c3)c(-c3cccc(Cl)c3)n21 [Compound 126, (4S)-4-(2-aminoethyl)-6-(3-chlorophenyl)-7-[3-(trifluoromethoxy)phenyl]-3,4-dihydropyrrolo[1,2-a]pyrazin-1(2H)-one hydrochloride] | 776 nM | 125 nM | 13 nM | 21 nM | – |
| CCOc1ccc(-c2c(-c3cccc(OC(F)(F)F)c3)cc3n2[C@@H](CCN)CNC3=O)cc1F [Compound 127, (4S)-4-(2-aminoethyl)-6-(4-ethoxy-3-fluorophenyl)-7-[3-(trifluoromethoxy)phenyl]-3,4-dihydropyrrolo[1,2-a]pyrazin-1(2H)-one hydrochloride] | 433 nM | 125 nM | 12 nM | 24 nM | – |
| COc1c(C)cc(-c2c(-c3cccc(OC(F)(F)F)c3)cc3n2[C@@H](CCN)CNC3=O)cc1C [Compound 128, 4S)-4-(2-aminoethyl)-6-(4-methoxy-3,5-dimethyl phenyl)-7-[3-(trifluoromethoxy)phenyl]-3,4-dihydropyrrolo[1,2-a]pyrazin-1(2H)-one hydrochloride] | – | 175 nM | 8 nM | 32 nM | 470 nM |
| COc1ccc(-c2c(-c3cccc(OC(F)(F)F)c3)cc3n2[C@@H](CCN)CNC3=O)cc1Cl [Compound 129, (4S)-4-(2-aminoethyl)-6-(3-chloro-4-methoxyphenyl)-7-[3-(trifluoromethoxy)phenyl]-3,4-dihydropyrrolo[1,2-a]pyrazin-1(2H)-one hydrochloride] | 710 nM | 198 nM | 3 nM | 12 nM | – |
| CN(C)Cc1ccc(-c2c(-c3cccc(OC(F)(F)F)c3)cc3n2[C@@H](CCCN)CNC3=O)cc1 [Compound 134, (4S)-4-(3-aminopropyl)-6-{4-[(dimethylamino)methyl]phenyl}-7-[3-(trifluoromethoxy)phenyl]-3,4-dihydropyrrolo[1,2-a]pyrazin-1(2H)-one dihydrochloride] | 7060 nM | 4320 nM | 2 nM | 66 nM | – |
| CC(=O)NCC[C@H]1CNC(=O)c2cc(-c3cccc(OC(F)(F)F)c3)c(-c3ccccc3)n21 [Compound 142, N-(2-{(4S)-1-oxo-6-phenyl-7-[3-(trifluoromethoxy)phenyl]-1,2,3,4-tetrahydropyrrolo[1,2-a]pyrazin-4-yl}ethyl)acetamide] | 4890 nM | 491 nM | 34 nM | 174 nM | – |
| CS(=O)(=O)NCC[C@H]1CNC(=O)c2cc(-c3cccc(OC(F)(F)F)c3)c(-c3ccccc3)n21 [Compound 147, N-(2-{(4S)-1-oxo-6-phenyl-7-[3-(trifluoromethoxy)phenyl]-1,2,3,4-tetrahydropyrrolo[1,2-a]pyrazin-4-yl}ethyl)methanesulfonamide] | 3620 nM | 638 nM | 26 nM | 172 nM | – |
